Data published in patent US10597388B2, “Pyridazinone herbicides” (FMC CORPORATION, priority 2014, dated 2020).

How the values were obtained:
Experiment in all cases: Test E greenhouse herbicide test, pre- and postemergence
Type in all cases: in vivo
[1] = system: goosegrass (Eleusine indica); settings: Preemergence
Procedure, shortened: (§1)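 Pre- and postemergence sprays, same solvent–surfactant formulation. Substrate: silt loam (pre), peat-based mix (post, 1–4 leaf, 2–18 cm). Readout: visual control rating 0–100 against controls at 14–21 d.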

[2] = system: waterhemp (common waterhemp, Amaranthus rudis)
Procedure, shortened: as §1

[3] = system: field bindweed (Convolvulus arvensis)
Procedure, shortened: as §1

[4] = system: wild poinsettia (Euphorbia heterophylla)
Procedure, shortened: as §1

[5] = system: arrowleaf sida (Sida rhombifolia)
Procedure, shortened: as §1

[6] = 62 g ai/ha, scale 0 to 100 (0 no effect, 100 complete control)
[7] = 31 g ai/ha, scale 0 to 100, 0 no effect, 100 complete control
[8] = 62 g ai/ha, Postemergence, scale 0 to 100 (0 no effect, 100 complete control)
[9] = 62 g ai/ha, Preemergence, scale 0 to 100 (0 no effect, 100 complete control)
[10] = 125 g ai/ha, Postemergence, scale 0 to 100 (0 no effect, 100 complete control)
[11] = 125 g ai/ha, Preemergence, scale 0 to 100 (0 no effect, 100 complete control)
[12] = 250 g ai/ha, Postemergence, scale 0 to 100 (0 no effect, 100 complete control)
[13] = Postemergence, 31 g ai/ha, visual, scale 0 no effect to 100 complete control
[14] = Preemergence, 31 g ai/ha, scale 0 to 100, 0 no effect, 100 complete control
[15] = Preemergence, 250 g ai/ha, visual, scale 0 no effect to 100 complete control
[16] = Preemergence, 125 g ai/ha, visual, scale 0 no effect to 100 complete control
[17] = Postemergence, 16 g ai/ha, visual, scale 0 no effect to 100 complete control
[18] = Preemergence, 16 g ai/ha, scale 0 to 100, 0 no effect, 100 complete control

Compound	Plant response rating, Goosegrass [1, 6]	Plant response rating, Goosegrass [1, 7]	Plant response rating, Waterhemp [2, 9]	Plant response rating, Waterhemp [2, 10]	Plant response rating, Waterhemp [2, 11]	Plant response rating, Waterhemp [2, 13]	Plant response rating, Waterhemp [2, 14]	Plant response rating, Field Bindweed [3, 8]	Plant response rating, Field Bindweed [3, 9]	Plant response rating, Field Bindweed [3, 10]	Plant response rating, Field Bindweed [3, 13]	Plant response rating, Field Bindweed [3, 14]	Plant response rating, Poinsettia, Wild [4, 9]	Plant response rating, Poinsettia, Wild [4, 11]	Plant response rating, Poinsettia, Wild [4, 14]	Plant response rating, Arrowleaf Sida [5, 8]	Plant response rating, Arrowleaf Sida [5, 9]	Plant response rating, Arrowleaf Sida [5, 10]	Plant response rating, Arrowleaf Sida [5, 13]	Plant response rating, Arrowleaf Sida [5, 14]	further results
Cc1nn(C)c(=O)c(-c2ccc(F)c3ccccc23)c1O [Compound 41]	0	0	98	90	100	75	75	90	70	85	80	30	40	40	15	90	50	95	85	20	Plant response rating, Goosegrass ([1]; 125 g ai/ha, visual, scale 0 no effect to 100 complete control): 50; Plant response rating, Goosegrass ([1]; 250 g ai/ha, visual, scale 0 no effect to 100 complete control): 60; Plant response rating, Waterhemp [2, 8]: 85; Plant response rating, Waterhemp [2, 12]: 85; Plant response rating, Waterhemp [2, 15]: 100; Plant response rating, Field Bindweed [3, 12]: 95; Plant response rating, Field Bindweed [3, 16]: 75; Plant response rating, Field Bindweed [3, 15]: 90; Plant response rating, Poinsettia, Wild [4, 15]: 65; Plant response rating, Arrowleaf Sida [5, 12]: 90; Plant response rating, Arrowleaf Sida [5, 16]: 98; Plant response rating, Arrowleaf Sida [5, 15]: 100
CCCC(=O)Oc1c(C)nn(C)c(=O)c1-c1c(C)sc2ccc(C)cc12 [Compound 105]	0	0	90	90	100	70	80	75	50	95	80	20	10	10	10	60	40	70	60	0	Plant response rating, Goosegrass ([1]; 125 g ai/ha, scale 0 to 100 (0 no effect, 100 complete control)): 10; Plant response rating, Goosegrass ([1]; 16 g ai/ha, scale 0 to 100, 0 no effect, 100 complete control): 0; Plant response rating, Waterhemp [2, 17]: 60; Plant response rating, Waterhemp [2, 18]: 70; Plant response rating, Field Bindweed [3, 11]: 70; Plant response rating, Field Bindweed [3, 17]: 75; Plant response rating, Field Bindweed [3, 18]: 20; Plant response rating, Poinsettia, Wild [4, 8]: 25; Plant response rating, Poinsettia, Wild [4, 10]: 30; Plant response rating, Poinsettia, Wild [4, 17]: 30; Plant response rating, Poinsettia, Wild [4, 13]: 30; Plant response rating, Poinsettia, Wild [4, 18]: 0; Plant response rating, Arrowleaf Sida [5, 11]: 50; Plant response rating, Arrowleaf Sida [5, 17]: 50; Plant response rating, Arrowleaf Sida [5, 18]: 0
